Data published in patent US20070185069A1, “Anti-angiogenic activity of 2-methoxyestradiol in combination with anti-cancer agents” (priority 2005, published 2007).
pIC50: −log10 of the molar value. “And” between values parts separate entries of the source, which are not always exact repeats. Equal values may be shown once.

Legend:
[1] = tested on: HUVEC; assay: HUVEC proliferation assay (BRDU); assay type: cell-based; details: 48 hours after application of drug
Protocol: (§1) U87 MG human glioblastoma cells were maintained in vitro in DMEM supplemented with 5% FBS, 2 mM glutamine, 1 mM sodium pyruvate, MEM vitamins and NEAA at 37° C. and 5% CO2. HUVEC were maintained in M 200 media. For both HUVEC and U87 MG proliferation assays, cells were plated in a 96 well plate at 5×10^3 cells per well and incubated at 37° C. overnight. At 24 hours, the media was aspirated and 2ME2 was administered to the cells at the following doses: […]. Proliferation was assessed 48 hours after application of drug by WST-1(U87 MG) or BRDU (HUVEC).

[2] = tested on: H2122; assay: H2122 tumor model, MST; assay type: in vivo; details: Paclitaxel, 2ME2 or both combined
[3] = tested on: PC3; assay: PC3 tumor model, XRT combination; assay type: in vivo; details: 2ME2 or both combined
[4] = tested on: U87 MG human glioblastoma cells; assay: U87 MG proliferation assay (WST-1); assay type: cell-based; details: U87 MG versus HUVEC
Protocol: as §1

[5] = in vivo
Protocol: (§2) 2-methoxyestradiol (2ME2) is an endogenous metabolite of estradiol with antiproliferative, proapoptotic and antiangiogenic activity. […] A new formulation of 2ME2 with enhanced absorption, Panzem® NCD, is currently in clinical trials. In anticipation of Phase 2 clinical trials with Panzem® NCD, tests were conducted to assess its anti-tumor activity as either monotherapy or in combination with cytotoxic agents. In this preclinical study, the effectiveness of 2ME2 alone or with the antimetabolite, 5-Fluorouracil (5-FU) in the CT-26 syngeneic tumor model was evaluated. 5-FU is a well-recognized and commonly used antineoplastic agent used for treatment of colorectal cancer. […] Subsequent to these studies, male BALB/c mice were injected subcutaneously with 1×10^6 CT-26 cells. Starting 7 days after tumor cell inoculation when mean tumor volume was approximately 100 mm^3, cohorts of mice (n=5/group) began treatment with (a) vehicle alone; (b) 2ME@200mg/kg p.o. q.d.; (c) 5-FU 30mg/kg p.o. q.d.×5; (d) or a combination of 5-FU at 30 mg/kg p.o. q.d.×5 with 2ME2 at 50, 100, or 200 mg/kg p.o. q.d. […] Cohorts of mice receiving the combination of 5-FU and 2ME2 had oral administrations in the A.M. (5-FU) and the P.M. (2ME2).

[6] = tested on: CT-26 syngeneic colon carcinoma; assay: CT-26 syngeneic tumor model, subcutaneous; assay type: in vivo, BALB/c mice
Protocol: as §2

[7] = target: T1, estrogen receptor α (Homo sapiens, UniProt P03372); details: LaVallee et al. 2002; cited from earlier work
T1 sequence (P03372 1-595): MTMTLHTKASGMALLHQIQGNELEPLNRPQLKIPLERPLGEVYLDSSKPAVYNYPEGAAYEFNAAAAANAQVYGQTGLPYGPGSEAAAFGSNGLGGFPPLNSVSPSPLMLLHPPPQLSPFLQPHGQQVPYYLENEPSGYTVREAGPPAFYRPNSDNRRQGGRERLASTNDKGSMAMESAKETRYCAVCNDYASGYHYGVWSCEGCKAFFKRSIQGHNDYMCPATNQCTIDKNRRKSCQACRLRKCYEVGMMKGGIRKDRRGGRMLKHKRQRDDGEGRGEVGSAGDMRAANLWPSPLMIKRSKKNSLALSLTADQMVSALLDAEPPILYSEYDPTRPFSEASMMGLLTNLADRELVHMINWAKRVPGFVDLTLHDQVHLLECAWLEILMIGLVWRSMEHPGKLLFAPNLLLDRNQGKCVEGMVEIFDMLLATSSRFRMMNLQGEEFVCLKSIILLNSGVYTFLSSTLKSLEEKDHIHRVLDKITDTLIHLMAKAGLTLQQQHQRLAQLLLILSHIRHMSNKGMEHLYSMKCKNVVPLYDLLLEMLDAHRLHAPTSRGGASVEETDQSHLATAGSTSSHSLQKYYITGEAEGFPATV

[8] = tested on: RPMI-8226; assay: RPMI-8226 xenograft model of myeloma; assay type: in vivo; details: RPMI-8226 model; Velcade, 2ME2 or both combined
[9] = tested on: CT-26 cells; assay: In vitro inhibition of proliferation of CT-26 cells; assay type: cell-based; details: preliminary in vitro studies
[10] = tested on: U87 MG ectopic tumors; assay: Late stage U87 MG glioblastoma xenograft tumor model; assay type: in vivo, mice; details: for %Δ (Percent change in tumor volume from start of treatment): U87MG model, Temodar, 2ME2 or both combined; for inhibition of tumor growth: study day 28, treatment begun at about 300 mm^3, 2ME2 400 mg/kg p.o., q.d., Temodar 42 mg/kg p.o., q.d.×5
Protocol: In a second preclinical study the effectiveness of 2ME2 alone or in combination with Temodar® in the U87 MG glioblastoma xenograft tumor model was evaluated. Given the effectiveness of Temodar® at the maximally tolerated dose against 100 mm^3 tumor burden, we altered the treatment strategy such that treatment was initiated when mean tumor volume was approximately 300 mm^3. Cohorts of mice received treatment with either vehicle control, 2ME2 400 mg/kg p.o., q.d., Temodar® 42 mg/kg p.o., q.d×5, or 2ME2 400 mg/kg p.o., q.d. combined with Temodar® 42 mg/kg p.o., q.d.×5. Mice treated with the combination of 2ME2 and Temodar® received oral administration in the PM and AM, respectively.

[11] = tested on: LLC met; assay: LLC met tumor model; assay type: in vivo; details: 2ME2 or both combined
[12] = tested on: U87MG; assay: U87MG tumor model, CPT-11 combination; assay type: in vivo; details: CPT-11, 2ME2 or both combined
[13] = target: estrogen receptor β (Homo sapiens, UniProt Q92731); details: LaVallee et al. 2002; cited from earlier work
[14] = tested on: U87 MG ectopic tumors; assay: Early stage U87 MG ectopic tumors, subcutaneous; assay type: in vivo, Balb/c SCID mice; details: study day 30; for inhibition of tumor growth: treatment begun at about 100 mm^3
Protocol: To assess whether 2ME2 or Temodarg® (Schering Corp. Kenilworth, N.J.) impact tumor growth of U87 MG, we designed the following experiment. Male Balb/c SCID mice were injected subcutaneously with 1×10^6 U87 MG tumor cells.

[15] = tested on: vascular endothelial cell proliferation; details: Ingber et al. 1990; cited from earlier work
[16] = Separate tolerability study of Temodar; set-up: species or system mice; details: mouse, in vivo, po, q.d.×5; read-out: maximally tolerated dose (MTD)
Protocol: Results: On study day 30, the mean tumor volume of the vehicle control animals was approximately 3000 mm^3. […] Using this dose and regimen in this model, Temodar® blocked U87 MG tumor growth by 98% (T/C =0.02).

[17] = CT-26 model (Table 1), 5-FU, 2ME2 or both combined

estrogen receptor β, sequence (Q92731 whole entry): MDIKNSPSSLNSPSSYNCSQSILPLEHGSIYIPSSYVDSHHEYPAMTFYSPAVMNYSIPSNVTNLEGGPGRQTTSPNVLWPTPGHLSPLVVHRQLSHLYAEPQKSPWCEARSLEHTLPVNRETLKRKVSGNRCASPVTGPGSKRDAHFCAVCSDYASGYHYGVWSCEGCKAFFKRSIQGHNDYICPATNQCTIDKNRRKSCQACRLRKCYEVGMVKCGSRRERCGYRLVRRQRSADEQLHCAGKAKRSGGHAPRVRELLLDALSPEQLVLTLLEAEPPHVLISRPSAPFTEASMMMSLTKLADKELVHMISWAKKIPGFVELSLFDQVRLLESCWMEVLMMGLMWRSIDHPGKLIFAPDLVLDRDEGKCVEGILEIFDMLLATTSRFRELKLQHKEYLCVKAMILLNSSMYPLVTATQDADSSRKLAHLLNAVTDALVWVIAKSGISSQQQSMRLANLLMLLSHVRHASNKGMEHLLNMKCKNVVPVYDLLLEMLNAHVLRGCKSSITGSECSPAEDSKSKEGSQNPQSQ

## COc1cc2c(cc1O)CC[C@@H]1[C@@H]2CC[C@]2(C)[C@@H](O)CC[C@@H]12 [2ME2, 2-methoxyestradiol]
[1]
  pIC50: 6.33
[2]
  MST: 17 days
[3]
  T − C (Difference in tumor doubling time): 0 days
[4]
  anti-proliferative dosage on glioblastoma cells relative to dosage with antiangiogenic effect on HUVEC: nearly five times
[5]; CT-26 bearing BALB/c mice
  mean changes in body weight as a consequence of treatment: moderate to no change
[6]; [17]
  T/C: 0.37
[6]; study date 29, agent alone (2ME2 200 mg/kg p.o. q.d.; 5-FU 30 mg/kg p.o. q.d.×5)
  T/C: 0.79 and 0.51
[7]
  affinity for estrogen receptor α: low affinity
[8]
  T/C: 0.66
[9]
  pIC50: 5.52
[10]
  %Δ (Percent change in tumor volume from start of treatment): 333%
  inhibition of tumor growth: 20%
[11]; Cisplatin
  T/C: 0.37
[11]; Paclitaxel
  T/C: 0.37
[12]
  %Δ (Percent change in tumor volume from start of treatment): 890%
[13]
  affinity for estrogen receptor β: low affinity
[14]; 2ME2 200 mg/kg p.o., q.d.
  T/C: 0.61
  inhibition of tumor growth: approximately 40%
[14]; 2ME2 400 mg/kg p.o., q.d.
  T/C: 0.61
  inhibition of tumor growth: approximately 40%

## CC(C)C[C@H](NC(=O)[C@H](Cc1ccccc1)NC(=O)c1cnccn1)B(O)O [Velcade, reference compound]
[8]
  T/C: 0.64

## CO[C@@H]1[C@H](OC(=O)NC(=O)CCl)CC[C@]2(CO2)[C@H]1[C@@]1(C)O[C@@H]1CC=C(C)C [AGM-1470]
[15]
  half-maximal inhibition of vascular endothelial cell proliferation at lower concentration than tumor cell proliferation: 4 logs

## Cn1nnc2c(C(N)=O)ncn2c1=O [Temodar ®, reference compound]
[10]
  %Δ (Percent change in tumor volume from start of treatment): 266%
  inhibition of tumor growth: 34%
[16]
  MTD at 5 days: 42 mg/kg
[14]; Temodar 42 mg/kg p.o., q.d.×5
  T/C: 0.02
  inhibition of tumor growth: 98%

## CC(=O)O[C@H]1C(=O)[C@@]2(C)[C@H]([C@H](OC(=O)c3ccccc3)[C@]3(O)C[C@H](OC(=O)[C@H](O)[C@@H](NC(=O)c4ccccc4)c4ccccc4)C(C)=C1C3(C)C)[C@]1(OC(C)=O)CO[C@@H]1C[C@@H]2O [Paclitaxel, reference compound]
[2]
  MST: 24 days
[11]; Paclitaxel
  T/C: 0.38

## N.N.[Cl][Pt][Cl] [Cisplatin, reference compound]
[11]; Cisplatin
  T/C: 0.19

## O=c1[nH]cc(F)c(=O)[nH]1 [5-FU, 5-Fluorouracil]
[5]; male, mouse, in vivo, po
  MTD at 5 days: 30 mg/kg
[5]; mouse, in vivo
  mean changes in body weight as a consequence of treatment: moderate to no change
[6]; [17]
  T/C: 0.38
